Data taken from PMC9150124, “Design of a Potent, Selective, and Brain-Penetrant Inhibitor of Wnt-Deactivating Enzyme Notum by Optimization of a Crystallographic Fragment Hit” (Journal of Medicinal Chemistry, 2022).

Tests used:
Assay in all cases: SelectScreen kinase profiling, SSBK ZLyte SP Technology
Assay type in all cases: biochemical
[1] = target: kinase named in conditions (Homo sapiens, UniProt P49841); conditions: GSK3B (GSK3 beta), 10 μM
Procedure: (§1) Kinase selectivity screening was performed by Thermo Fisher Scientific (Paisley, U.K.) in their SelectScreen Biochemical Kinase Profiling Service. Assay information and data are presented in the Supporting Information.
(§2) Kinase selectivity screening was performed by ThermoFisher Scientific (Paisley, U.K.) in their SelectScreenTM
(§3) Biochemical Kinase Profiling service .

[2] = target: kinase named in conditions (Homo sapiens, UniProt P52333); conditions: JAK3, 10 μM
Procedure: as §1, §2, §3

[3] = target: kinase named in conditions (Homo sapiens, UniProt P51955); conditions: NEK2, 10 μM
Chain of kinase named in conditions (Homo sapiens, UniProt P51955) (P51955 whole entry): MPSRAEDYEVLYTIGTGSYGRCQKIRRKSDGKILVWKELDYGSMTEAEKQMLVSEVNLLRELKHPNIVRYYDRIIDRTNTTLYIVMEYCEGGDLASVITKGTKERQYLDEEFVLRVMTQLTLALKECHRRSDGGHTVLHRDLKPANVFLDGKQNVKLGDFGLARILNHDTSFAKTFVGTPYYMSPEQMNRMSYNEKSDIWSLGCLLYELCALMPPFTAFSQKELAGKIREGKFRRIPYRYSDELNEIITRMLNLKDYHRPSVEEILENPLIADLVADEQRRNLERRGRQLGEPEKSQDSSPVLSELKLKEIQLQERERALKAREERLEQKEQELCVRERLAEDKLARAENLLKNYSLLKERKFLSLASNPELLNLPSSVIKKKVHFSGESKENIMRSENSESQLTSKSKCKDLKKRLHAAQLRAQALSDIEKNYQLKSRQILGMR
Procedure: as §1, §2, §3

[4] = target: kinase named in conditions (Homo sapiens, UniProt P42681); conditions: TXK, 10 μM
Procedure: as §1, §2, §3

[5] = target: kinase named in conditions (Homo sapiens, UniProt O43781); conditions: DYRK3, 10 μM
Procedure: as §1, §2, §3

[6] = target: kinase named in conditions (Homo sapiens, UniProt O75582); conditions: RPS6KA5 (MSK1), 10 μM
Procedure: as §1, §2, §3

[7] = target: kinase named in conditions (Homo sapiens, UniProt Q8IU85); conditions: CAMK1D (CaMKI delta), 10 μM
Procedure: as §1, §2, §3

[8] = target: kinase named in conditions (Homo sapiens, UniProt Q16816); conditions: PHKG1, 10 μM
Chain of kinase named in conditions (Homo sapiens, UniProt Q16816) (Q16816 whole entry): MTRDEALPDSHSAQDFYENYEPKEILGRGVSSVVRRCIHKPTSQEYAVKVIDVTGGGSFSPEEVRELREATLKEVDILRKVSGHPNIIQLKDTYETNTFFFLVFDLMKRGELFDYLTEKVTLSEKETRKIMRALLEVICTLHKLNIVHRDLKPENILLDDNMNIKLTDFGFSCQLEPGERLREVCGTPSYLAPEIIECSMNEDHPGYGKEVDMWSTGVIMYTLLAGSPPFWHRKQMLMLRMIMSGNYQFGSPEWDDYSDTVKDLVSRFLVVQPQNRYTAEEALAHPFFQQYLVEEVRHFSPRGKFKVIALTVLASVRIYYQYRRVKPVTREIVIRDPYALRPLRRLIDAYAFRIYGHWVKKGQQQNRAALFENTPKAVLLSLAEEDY
Procedure: as §1, §2, §3

[9] = target: kinase named in conditions (Homo sapiens, UniProt Q04759); conditions: PRKCQ (PKC theta), 10 μM
Procedure: as §1, §2, §3

[10] = target: kinase named in conditions (Homo sapiens, UniProt Q02763, Y897S); conditions: TEK (TIE2) Y897S, 10 μM
Chain of kinase named in conditions (Homo sapiens, UniProt Q02763, Y897S) (Q02763 23-1124 Y897S): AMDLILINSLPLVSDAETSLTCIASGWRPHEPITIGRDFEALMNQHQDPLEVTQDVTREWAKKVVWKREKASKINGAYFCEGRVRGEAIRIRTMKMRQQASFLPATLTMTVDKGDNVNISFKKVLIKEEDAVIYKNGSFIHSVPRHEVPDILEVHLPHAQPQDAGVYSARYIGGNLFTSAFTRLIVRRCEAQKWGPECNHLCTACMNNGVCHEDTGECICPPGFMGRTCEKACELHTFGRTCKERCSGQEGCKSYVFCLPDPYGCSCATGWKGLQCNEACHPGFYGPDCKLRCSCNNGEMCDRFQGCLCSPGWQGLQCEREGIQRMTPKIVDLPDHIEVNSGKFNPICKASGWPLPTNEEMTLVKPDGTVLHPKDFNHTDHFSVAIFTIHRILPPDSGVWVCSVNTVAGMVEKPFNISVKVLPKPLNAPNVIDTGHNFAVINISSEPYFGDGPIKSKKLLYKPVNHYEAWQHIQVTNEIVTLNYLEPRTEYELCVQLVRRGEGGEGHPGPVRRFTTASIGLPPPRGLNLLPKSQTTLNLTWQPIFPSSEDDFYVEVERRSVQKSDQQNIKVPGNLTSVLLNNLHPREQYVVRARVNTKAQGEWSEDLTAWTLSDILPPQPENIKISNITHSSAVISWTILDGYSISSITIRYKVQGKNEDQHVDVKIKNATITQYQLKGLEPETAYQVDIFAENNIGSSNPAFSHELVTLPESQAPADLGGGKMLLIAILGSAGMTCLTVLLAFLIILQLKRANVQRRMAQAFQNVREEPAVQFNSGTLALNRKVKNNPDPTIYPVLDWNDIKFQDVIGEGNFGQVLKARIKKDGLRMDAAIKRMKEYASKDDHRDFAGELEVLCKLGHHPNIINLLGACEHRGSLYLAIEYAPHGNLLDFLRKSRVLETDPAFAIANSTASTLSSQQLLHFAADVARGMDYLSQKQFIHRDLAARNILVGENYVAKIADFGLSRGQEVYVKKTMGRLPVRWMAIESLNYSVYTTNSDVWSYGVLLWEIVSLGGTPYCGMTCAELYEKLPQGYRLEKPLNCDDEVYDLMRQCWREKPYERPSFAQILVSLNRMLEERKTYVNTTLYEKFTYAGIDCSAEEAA
Procedure: as §1, §2, §3

[11] = target: kinase named in conditions (Homo sapiens, UniProt Q9Y6M4); conditions: CSNK1G3 (CK1 gamma 3), 10 μM
Procedure: as §1, §2, §3

[12] = target: kinase named in conditions (Homo sapiens, UniProt Q9H1R3); conditions: MYLK2 (skMLCK), 10 μM
Procedure: as §1, §2, §3

[13] = target: kinase named in conditions (Homo sapiens, UniProt P24723); conditions: PRKCH (PKC eta), 10 μM
Procedure: as §1, §2, §3

[14] = target: kinase named in conditions (Homo sapiens, UniProt P22455); conditions: FGFR4, 10 μM
Procedure: as §1, §2, §3

[15] = target: kinase named in conditions (Homo sapiens, UniProt P00519, G250E); conditions: ABL1 G250E, 10 μM
Procedure: as §1, §2, §3

[16] = target: kinase named in conditions (Homo sapiens, UniProt Q9HCP0); conditions: CSNK1G1 (CK1 gamma 1), 10 μM
Procedure: as §1, §2, §3

[17] = target: kinase named in conditions (Homo sapiens, UniProt O14965); conditions: AURKA (Aurora A), 10 μM
Chain of kinase named in conditions (Homo sapiens, UniProt O14965) (O14965 whole entry): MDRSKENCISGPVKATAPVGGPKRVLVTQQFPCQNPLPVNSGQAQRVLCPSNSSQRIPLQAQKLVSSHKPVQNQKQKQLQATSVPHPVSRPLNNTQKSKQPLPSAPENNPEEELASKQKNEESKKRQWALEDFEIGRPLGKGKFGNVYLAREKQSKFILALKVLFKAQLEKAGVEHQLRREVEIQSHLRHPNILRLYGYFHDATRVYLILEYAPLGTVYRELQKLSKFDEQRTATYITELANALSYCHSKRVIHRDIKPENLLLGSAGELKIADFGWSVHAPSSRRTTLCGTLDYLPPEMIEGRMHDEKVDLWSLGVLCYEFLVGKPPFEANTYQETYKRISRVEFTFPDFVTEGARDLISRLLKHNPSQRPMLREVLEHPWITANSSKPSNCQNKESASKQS
Procedure: as §1, §2, §3

[18] = target: kinase named in conditions (Homo sapiens, UniProt Q8IW41); conditions: MAPKAPK5 (PRAK), 10 μM
Procedure: as §1, §2, §3

[19] = target: kinase named in conditions (Homo sapiens, UniProt P24941); conditions: CDK2/cyclin A, 10 μM
Procedure: as §1, §2, §3

[20] = target: kinase named in conditions (Homo sapiens, UniProt Q9NQU5); conditions: PAK6, 10 μM
Procedure: as §1, §2, §3

[21] = target: kinase named in conditions (Homo sapiens, UniProt P16234); conditions: PDGFRA (PDGFR alpha), 10 μM
Procedure: as §1, §2, §3

[22] = target: kinase named in conditions (Homo sapiens, UniProt Q12866); conditions: MERTK (cMER), 10 μM
Procedure: as §1, §2, §3

[23] = target: kinase named in conditions (Homo sapiens, UniProt P06213); conditions: INSR, 10 μM
Chain of kinase named in conditions (Homo sapiens, UniProt P06213) (P06213 28-1382): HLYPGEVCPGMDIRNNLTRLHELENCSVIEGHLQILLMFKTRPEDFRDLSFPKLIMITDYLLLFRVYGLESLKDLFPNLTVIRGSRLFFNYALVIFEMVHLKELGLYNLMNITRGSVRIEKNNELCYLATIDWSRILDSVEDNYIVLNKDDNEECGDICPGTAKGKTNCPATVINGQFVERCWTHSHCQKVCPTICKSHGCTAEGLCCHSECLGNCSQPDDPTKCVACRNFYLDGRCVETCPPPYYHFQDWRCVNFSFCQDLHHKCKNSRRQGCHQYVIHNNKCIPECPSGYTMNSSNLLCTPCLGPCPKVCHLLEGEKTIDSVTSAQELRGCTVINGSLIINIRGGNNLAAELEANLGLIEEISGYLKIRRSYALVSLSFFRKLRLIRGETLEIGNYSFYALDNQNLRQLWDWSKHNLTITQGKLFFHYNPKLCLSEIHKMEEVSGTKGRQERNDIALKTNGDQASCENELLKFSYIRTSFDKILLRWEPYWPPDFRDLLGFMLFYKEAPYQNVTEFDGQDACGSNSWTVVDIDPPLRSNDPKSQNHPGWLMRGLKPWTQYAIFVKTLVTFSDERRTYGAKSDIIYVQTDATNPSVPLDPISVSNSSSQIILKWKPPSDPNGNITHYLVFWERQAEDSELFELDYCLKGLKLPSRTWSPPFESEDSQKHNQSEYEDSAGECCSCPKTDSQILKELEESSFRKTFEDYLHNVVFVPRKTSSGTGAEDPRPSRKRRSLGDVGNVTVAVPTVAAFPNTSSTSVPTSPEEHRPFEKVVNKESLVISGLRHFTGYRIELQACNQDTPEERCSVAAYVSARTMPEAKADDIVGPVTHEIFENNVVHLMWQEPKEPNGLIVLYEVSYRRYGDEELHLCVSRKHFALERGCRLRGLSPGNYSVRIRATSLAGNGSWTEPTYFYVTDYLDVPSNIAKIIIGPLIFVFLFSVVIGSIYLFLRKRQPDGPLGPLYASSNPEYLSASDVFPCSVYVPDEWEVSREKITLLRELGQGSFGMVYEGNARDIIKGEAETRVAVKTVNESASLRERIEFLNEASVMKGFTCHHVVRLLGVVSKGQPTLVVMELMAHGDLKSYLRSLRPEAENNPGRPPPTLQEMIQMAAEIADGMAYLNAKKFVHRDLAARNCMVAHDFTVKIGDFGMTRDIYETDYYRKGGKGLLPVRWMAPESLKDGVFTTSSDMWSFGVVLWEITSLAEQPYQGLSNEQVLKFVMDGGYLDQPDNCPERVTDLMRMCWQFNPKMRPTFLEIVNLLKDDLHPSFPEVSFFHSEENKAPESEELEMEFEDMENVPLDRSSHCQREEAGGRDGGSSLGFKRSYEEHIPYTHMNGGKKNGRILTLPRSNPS
Procedure: as §1, §2, §3

[24] = target: kinase named in conditions (Homo sapiens, UniProt Q9H3Y6); conditions: SRMS (Srm), 10 μM
Chain of kinase named in conditions (Homo sapiens, UniProt Q9H3Y6) (Q9H3Y6 whole entry): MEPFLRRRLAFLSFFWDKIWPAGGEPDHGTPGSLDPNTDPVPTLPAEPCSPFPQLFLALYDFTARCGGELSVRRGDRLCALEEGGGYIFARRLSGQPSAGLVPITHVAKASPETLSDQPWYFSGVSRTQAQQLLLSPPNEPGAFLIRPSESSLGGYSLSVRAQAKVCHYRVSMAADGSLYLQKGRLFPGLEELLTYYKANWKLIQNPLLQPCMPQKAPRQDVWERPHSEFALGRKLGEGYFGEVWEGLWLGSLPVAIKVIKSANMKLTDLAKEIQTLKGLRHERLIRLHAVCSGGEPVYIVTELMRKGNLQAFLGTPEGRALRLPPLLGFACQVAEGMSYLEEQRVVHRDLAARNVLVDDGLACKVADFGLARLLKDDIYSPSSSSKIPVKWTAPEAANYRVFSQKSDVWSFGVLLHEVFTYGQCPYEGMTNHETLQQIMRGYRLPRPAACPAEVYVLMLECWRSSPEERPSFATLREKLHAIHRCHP
Procedure: as §1, §2, §3

[25] = target: kinase named in conditions (Homo sapiens, UniProt Q9NWZ3); conditions: IRAK4, 10 μM
Procedure: as §1, §2, §3

[26] = target: kinase named in conditions (Homo sapiens, UniProt P05771); conditions: PRKCB1 (PKC beta I), 10 μM
Procedure: as §1, §2, §3

[27] = target: kinase named in conditions (Homo sapiens, UniProt P12931); conditions: SRC, 10 μM
Procedure: as §1, §2, §3

[28] = target: kinase named in conditions (Homo sapiens, UniProt P16234, D842V); conditions: PDGFRA D842V, 10 μM
Procedure: as §1, §2, §3

[29] = target: kinase named in conditions (Homo sapiens, UniProt Q12851); conditions: MAP4K2 (GCK), 10 μM
Chain of kinase named in conditions (Homo sapiens, UniProt Q12851) (Q12851 whole entry): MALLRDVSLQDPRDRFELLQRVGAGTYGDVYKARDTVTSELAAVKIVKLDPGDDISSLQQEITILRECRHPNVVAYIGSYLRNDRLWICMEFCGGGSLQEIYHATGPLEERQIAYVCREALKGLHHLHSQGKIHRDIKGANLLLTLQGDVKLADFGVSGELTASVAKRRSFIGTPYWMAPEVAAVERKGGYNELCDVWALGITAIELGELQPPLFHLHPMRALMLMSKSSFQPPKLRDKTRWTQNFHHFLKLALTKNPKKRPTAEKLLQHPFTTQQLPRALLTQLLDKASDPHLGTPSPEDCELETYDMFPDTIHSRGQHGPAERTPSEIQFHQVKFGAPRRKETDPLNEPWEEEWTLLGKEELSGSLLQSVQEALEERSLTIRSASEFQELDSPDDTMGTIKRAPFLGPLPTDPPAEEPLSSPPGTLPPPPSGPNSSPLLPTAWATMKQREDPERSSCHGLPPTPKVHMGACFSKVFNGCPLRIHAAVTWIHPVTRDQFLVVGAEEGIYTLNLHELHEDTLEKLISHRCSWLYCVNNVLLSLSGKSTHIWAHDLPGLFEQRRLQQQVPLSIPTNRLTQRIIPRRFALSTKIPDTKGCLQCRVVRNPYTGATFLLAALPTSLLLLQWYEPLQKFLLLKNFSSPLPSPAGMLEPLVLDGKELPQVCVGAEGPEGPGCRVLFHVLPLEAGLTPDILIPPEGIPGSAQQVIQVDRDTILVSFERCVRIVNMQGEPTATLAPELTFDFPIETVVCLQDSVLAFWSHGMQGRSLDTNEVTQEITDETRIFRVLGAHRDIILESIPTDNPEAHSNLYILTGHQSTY
Procedure: as §1, §2, §3

[30] = target: kinase named in conditions (Homo sapiens, UniProt O75676); conditions: RPS6KA4 (MSK2), 10 μM
Procedure: as §1, §2, §3

[31] = target: kinase named in conditions (Homo sapiens, UniProt P28482); conditions: MAPK1 (ERK2), 10 μM
Procedure: as §1, §2, §3

[32] = target: kinase named in conditions (Homo sapiens, UniProt P78362); conditions: SRPK2, 10 μM
Procedure: as §1, §2, §3

[33] = target: kinase named in conditions (Homo sapiens, UniProt Q15418); conditions: RPS6KA1 (RSK1), 10 μM
Procedure: as §1, §2, §3

[34] = target: kinase named in conditions (Homo sapiens, UniProt Q9BUB5); conditions: MKNK1 (MNK1), 10 μM
Procedure: as §1, §2, §3

With FC(F)(F)c1c(Cl)ccc(-n2ccnn2)c1Cl [8l, 1-(2,4-Dichloro-3-(trifluoromethyl)phenyl)-1H-1,2,3-triazole] the inhibition at 10 µM [1] was 7%, the inhibition at 10 µM [2] was 7% and the inhibition at 10 µM [3] was -11%. The inhibition at 10 µM [4] was 4%, the inhibition at 10 µM [5] was 1% and the inhibition at 10 µM [6] was 9%. For the same compound, the inhibition at 10 µM [7] was 1%, the inhibition at 10 µM [8] was 8% and the inhibition at 10 µM [9] was -11%. It also gave an inhibition at 10 µM [10] of 2%, an inhibition at 10 µM [11] of 0% and an inhibition at 10 µM [12] of 15%. The inhibition at 10 µM [13] was -1%, the inhibition at 10 µM [14] was 2% and the inhibition at 10 µM [15] was 8%. The inhibition at 10 µM [16] was 4%, the inhibition at 10 µM [17] was 4% and the inhibition at 10 µM [18] was 6%. For the same compound, the inhibition at 10 µM [19] was 6%, the inhibition at 10 µM [20] was 15% and the inhibition at 10 µM [21] was 13%. It also gave an inhibition at 10 µM [22] of 5%, an inhibition at 10 µM [23] of 6% and an inhibition at 10 µM [24] of 10%. It also gave an inhibition at 10 µM [25] of 5%, an inhibition at 10 µM [26] of 0% and an inhibition at 10 µM [27] of 6%. It also gave an inhibition at 10 µM [28] of 0%, an inhibition at 10 µM [29] of -3% and an inhibition at 10 µM [30] of 1%. The inhibition at 10 µM [31] was -2%, the inhibition at 10 µM [32] was 7% and the inhibition at 10 µM [33] was 8%. For the same compound, the inhibition at 10 µM [34] was 0%.
